Holding throughout (assay type): cell-based
Assay [1] deals with KRAS G12D mutant human gastric cancer cell AGS. In words: 3D cell proliferation inhibition assay, AGS. As to conditions: 168 h, 7 days, CTG, numeric values. The method, boiled down:
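For this 7-day anchorage-independent assay, 5×10^2 cells per well were exposed to 10000–0.026 nM test compound with 0.2% DMSO at 37 °C. ATP-based luminescence (CTG) gave viability, and percent inhibition versus DMSO controls was curve-fitted to obtain IC50.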

Assay [2] addresses T1, KRAS-G12D (Homo sapiens, UniProt P01116, G12D).
T1 construct: endogenous in cells; host or cells: A-427 (ATCC), AGS, AsPc-1, Panc 04.03
Description: KRAS-G12D degradation assay (Western Blot), AsPc-1 cells. As to conditions: for DC50: 24 h; for Dmax: ASPC1, 24 h. The method, then: The degradation effects of the compounds on KRAS-G12D were investigated on KRAS G12D mutant human lung cancer cell A-427 (ATCC), KRAS G12D mutant human gastric cancer cell AGS, KRAS G12D mutant human metastatic pancreatic cancer cell AsPc-1, and KRAS G12D mutant human pancreatic adenocarcinoma cell Panc 04.03. The specific procedures were as follows: 0.95 mL of cells were seeded into each well of a 24-well cell culture plate to achieve a cell density of 5×10^5 cells/well; and the cell plate was incubated in an incubator at 37° C. with 5% CO2 overnight. Then 50 μL of the compound solution after dilution was added to each of the wells with the corresponding cells, so that the final concentration of the compound was in a range of 0.03-3000 nM. The final concentration of DMSO was 0.25%. After the compounds were added, the cell plate was incubated in the incubator at 37° C. with 5% CO2 for 24 h. The culture medium in the 24-well cell culture plate was removed, and the plate was washed twice with 1×PBS (KeyGEN). 120 μL of RIPA (strong) lysis buffer (Beyotime) supplemented with 1 mM phenylmethylsulfonyl fluoride, a protease inhibitor mixture (Beyotime), and a protease phosphatase inhibitor mixture (Beyotime) was added to lyse adherent A-427 cells at the bottom of the cell culture plate. After the plate was left to stand on ice for 30 min, the protein lysate in each well was transferred to a 1.5 mL centrifuge tube and centrifuged at 15000 g for 20 min at 4° C. The cell lysate supernatants after centrifugation were cryopreserved in a refrigerator at −80° C. for later use.
After the samples of the cell lysate supernatants that had been prepared were thawed from the refrigerator at −80° C., the total protein concentrations of the cell lysates were determined using a BCA protein quantification kit (Tiangen). The total protein concentrations of the samples were then adjusted to 0.5 μg/μL with PBS and 5×SDS-PAGE protein loading buffer (Beyotime), and the samples were incubated in a water bath at 100° C. for 15 min. The samples were then incubated in an ice bath for 5 min and centrifuged at 14000 g for 1 min at 4° C., and the supernatants were mixed well as loading samples for the Western Blot assay. The samples were loaded into wells of a 10% precast gel (KeyGEN) with a loading volume of 10 μL (total protein: 5 μg), a sufficient Tris-MOPS-SDS running buffer (Adamas) was added, and then electrophoresis was performed at a constant voltage of 120 V for 55 min. After the electrophoresis, the proteins on the gel were transferred to PVDF membranes at a constant current of 250 mA for 55 min. After the membrane transfer, the PVDF membranes were incubated in 1× Quick Block blocking buffer (Beyotime) at room temperature for 30 min. After the blocking, the PVDF membranes were separately incubated at 4° C. overnight with the KRAS antibody (Abcam) diluted in a ratio of 1:1000 and the […] antibody (Abcam) diluted in a ratio of 1:2000 in 5% BSA as the diluent, and then washed with 1×TBST buffer (2.4 g of Tris, 8.8 g of NaCl, 1.5 mL of Tween 20, with pH adjusted to 7.4, with the volume brought to 1 L) 3 times for 10 min/time. The membranes were incubated with a secondary antibody (Abcam) diluted in 5% BSA at room temperature for 2 h, and then washed with 1×TBST buffer 3 times for 10 min/time. Finally, the membranes were incubated with Clarity Western ECL Substrate (BIO-RAD) for 5 min for luminescence and color development, and a ChemiScope 6200 Touch chemiluminescence imaging system (Clinx) was used for color development and protein mapping. Gray value analysis of the protein maps was performed using the chemiluminescence analysis software (Clinx). The gray correction value for each sample was calculated using the formula: gray correction value=(gray value of target protein/gray value of corresponding internal reference)×10^3. Then degradation rates were calculated by comparison with the gray correction value of the control group. […]

In assay [3] the test system is KRAS G12D mutant human pancreatic cancer cell Panc 04.03. Description: 3D cell proliferation inhibition assay, Panc 04.03. As to conditions: 168 h, Panc 04.03, 7 days, CTG, numeric values. The text has this: (§1) The inhibitory effects of the compounds on 3D cell proliferation were investigated on KRAS G12D mutant human lung cancer cell A427, KRAS G12D mutant human gastric cancer cell AGS, KRAS G12D mutant human metastatic pancreatic cancer cell AsPc-1, KRAS G12D mutant human pancreatic cancer cell Panc 04.03, KRAS G12D mutant human pancreatic cancer cell HPAC, KRAS G12V mutant human lung squamous cell carcinoma cell SW900, and KRAS WT human gastric cancer cell MKN1. The specific procedures were as follows:
(§2) 10 μL of each compound solution diluted in a gradient was added to corresponding wells of a 96-well low-adsorption microplate (PerkinElmer), so that the final concentrations of the test compounds in the reaction system were in a range of 10000-0.026 nM. The final concentration of DMSO was 0.2%. Then 90 µL of cells were correspondingly seeded into each well to achieve a cell density of 5×10^2 cells/well (the cell density of SW900 was 5×10^1 cells/well, and the cell density of MKN1 was 1×10^3 cells/well). In addition to test wells for the test compounds, both a DMSO control well and a medium control well were set, with the DMSO control well containing DMSO and cells and the medium well containing only a medium. After the sample loading, the 96-well low-adsorption microplate was incubated in an incubator at 37° C. with 5% carbon dioxide for 7 days. After 7 days, the microplate was taken out, and 100 μL of CTG reagent (Promega) was added to each well. The plate was incubated at room temperature for 60 min and read on a microplate reader EnVision by the chemiluminescence program. The inhibition rates of the compounds at each concentration were calculated using the formula for the percentage inhibition of cell proliferation: inhibition rate %=(mean value of DMSO control group−single concentration reading value of compound)/(mean value of DMSO control group−mean value of medium control group)×100. Then non-linear curve fittings for logarithmic concentration-inhibition rate were performed by GraphPad Prism 8, and the IC50 values of the compounds were obtained (Table 5).

Assay [4] deals with KRAS G12D mutant human metastatic pancreatic cancer cell AsPc-1. Description: 3D cell proliferation inhibition assay, AsPc-1. As to conditions: ASPC1, 168 h, AsPc-1, 7 days, CTG, numeric values.
Text: as §1, §2

The subject of assay [5] is KRAS G12D mutant human pancreatic cancer cell HPAC. Description: 3D cell proliferation inhibition assay, HPAC. As to conditions: 168 h, 7 days, CTG.
Text: as §1, §2

T1 sequence (P01116 1-188 isoform P01116-2 G12D): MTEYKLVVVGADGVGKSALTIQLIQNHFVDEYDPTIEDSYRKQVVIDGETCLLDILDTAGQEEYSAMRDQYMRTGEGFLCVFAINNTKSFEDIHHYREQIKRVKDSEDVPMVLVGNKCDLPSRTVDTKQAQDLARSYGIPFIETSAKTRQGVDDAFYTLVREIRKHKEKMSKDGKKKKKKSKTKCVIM

By IC50 is commonly meant the concentration needed to halve the response being measured. Higher therefore signals lower potency. The term DC50 denotes the concentration at which degradation of the target reaches its halfway point. The low end stands for a more potent degrader, the high end for a less potent degrader. As usually defined, the Dmax is the largest share of the target that was removed. The low end stands for a partial loss of target, the high end for a fuller loss of target. With `C#Cc1c(F)ccc2cc(O)cc(-c3ncc4c(N5CC6CCC(C5)N6)nc(OC[C@H](C)CN5CCN(CC6CCC7(CC6)CCN(C(=O)c6ccc(C)c(N8CCC(=O)NC8=O)c6)CC7)CC5)nc4c3F)c12` [Example 100, 1-(5-(9-((4-((R)-3-((4-(3,8-diazabicyclo[3.2.1]octan-3-yl)-7-(8-ethynyl-7-fluoro-3-hydroxynaphthalen-1-yl)-8-fluoropyrido[4,3-d]pyrimidin-2-yl)oxy)-2-methylpropyl)piperazin-1-yl)methyl)-3-azaspiro[5.5]undecane-3-carbonyl)-2-methylphenyl)dihydropyrimidine-2,4(1H,3H)-dione], the IC50 in assay [1] was 3.63 nM; in assay [3], 23.8 nM; in assay [4], 2.02 nM; in assay [5], 2.43 nM. In assay [2], this compound returned a DC50 of 2.54 nM. The Dmax in assay [2] amounted to 100%.
On to `[2H]C([2H])([2H])c1ccc(C(=O)N2CCC3(CCC(CN4CCN(CC5(COc6nc(N7CC8CCC(C7)N8)c7cnc(-c8cc(O)cc9ccc(F)c(C#C)c89)c(F)c7n6)CC5)CC4)CC3)CC2)cc1N1CCC(=O)NC1=O` [Example 103, 1-(5-(9-((4-((1-(((4-(3,8-diazabicyclo[3.2.1]octan-3-yl)-7-(8-ethynyl-7-fluoro-3-hydroxynaphthalen-1-yl)-8-fluoropyrido[4,3-d]pyrimidin-2-yl)oxy)methyl)cyclopropyl)methyl)piperazin-1-yl)methyl)-3-azaspiro[5.5]undecane-3-carbonyl)-2-(methyl-d3)phenyl)dihydropyrimidine-2,4(1H,3H)-dione], for which the IC50 was 4.35 nM in assay [1], 16.8 nM in assay [3], 1.41 nM in assay [4] and 1.58 nM in assay [5].
As to `C#Cc1c(F)ccc2cc(O)cc(-c3ncc4c(N5CC6CCC(C5)N6)nc(OCC5(CN6CCN(CC7CCC8(CC7)CCN(C(=O)c7cc(N9CCC(=O)NC9=O)c(C)cc7F)CC8)CC6)CC5)nc4c3F)c12` [Example 104, 1-(5-(9-((4-((1-(((4-(3,8-diazabicyclo[3.2.1]octan-3-yl)-7-(8-ethynyl-7-fluoro-3-hydroxynaphthalen-1-yl)-8-fluoropyrido[4,3-d]pyrimidin-2-yl)oxy)methyl)cyclopropyl)methyl)piperazin-1-yl)methyl)-3-azaspiro[5.5]undecane-3-carbonyl)-4-fluoro-2-methylphenyl)dihydropyrimidine-2,4(1H,3H)-dione], the IC50 in assay [1] is 2.49 nM; in assay [3] it was 31.3 nM; in assay [4] it was 1.83 nM; in assay [5] it was 5.32 nM.
Turning to `C#Cc1c(F)ccc2cc(O)cc(-c3ncc4c(N5CC6CCC(C5)N6)nc(OCC5(CN6CCN(CC7CCC8(CCN(C(=O)c9ccc(C)c(N%10CCC(=O)NC%10=O)c9)CC8)OC7)CC6)CC5)nc4c3F)c12` (stereo not shown) [Example 151, 1-(5-(3-((4-((1-(((4-(3,8-diazabicyclo[3.2.1]octan-3-yl)-7-(8-ethynyl-7-fluoro-3-hydroxynaphthalen-1-yl)-8-fluoropyrido[4,3-d]pyrimidin-2-yl)oxy)methyl)cyclopropyl)methyl)piperazin-1-yl)methyl)-1-oxa-9-azaspiro[5.5]undecane-9-carbonyl)-2-methylphenyl)dihydropyrimidine-2,4(1H,3H)-dione], the IC50 in assay [1] worked out at 6.82 nM; in assay [3], 23.1 nM; in assay [4], 3.86 nM; in assay [5] it was 6.92 nM.
For `C#Cc1c(F)ccc2cc(O)cc(-c3ccc4c(N5CC6CCC(C5)N6)nc(OC[C@H](C)CN5CCN(CC6CCC7(CC6)CCN(C(=O)c6ccc(OC)c(N8CCC(=O)NC8=O)c6)CC7)CC5)nc4c3F)c12` [Example 207, 1-(5-(9-((4-((R)-3-((4-(3,8-diazabicyclo[3.2.1]octan-3-yl)-7-(8-ethynyl-7-fluoro-3-hydroxynaphthalen-1-yl)-8-fluoroquinazolin-2-yl)oxy)-2-methylpropyl)piperazin-1-yl)methyl)-3-azaspiro[5.5]undecane-3-carbonyl)-2-methoxyphenyl)dihydropyrimidine-2,4(1H,3H)-dione], the IC50 in assay [1] came out at 11.2 nM; in assay [3], 34.5 nM; in assay [4], 16.1 nM. This compound came in with a DC50 in assay [2] of 15.1 nM. In assay [2], this compound came in with a Dmax of 99.7%.
The compound `C#Cc1c(F)ccc2cc(O)cc(-c3ccc4c(N5CC6CCC(C5)N6)nc(OC[C@H](C)CN5CCN(CC6CCC7(CC6)CCN(C(=O)c6ccc(C)c(N8CCC(=O)NC8=O)c6)CC7)CC5)nc4c3F)c12` [Example 251, 1-(5-(9-((4-((R)-3-((4-(3,8-diazabicyclo[3.2.1]octan-3-yl)-7-(8-ethynyl-7-fluoro-3-hydroxynaphthalen-1-yl)-8-fluoroquinazolin-2-yl)oxy)-2-methylpropyl)piperazin-1-yl)methyl)-3-azaspiro[5.5]undecane-3-carbonyl)-2-methylphenyl)dihydropyrimidine-2,4(1H,3H)-dione] displayed a DC50 in assay [2] of 8.72 nM. The same compound showed a Dmax in assay [2] of 99.1%. Also, the IC50 came to 22.4 nM in assay [3], 14.3 nM in assay [4] and 40.2 nM in assay [5].

These data come from US20260166159A1, “KRAS G12D DEGRADATION AGENT, AND PREPARATION METHOD AND USE THEREFOR” (LEADINGTAC PHARMACEUTICAL (SHAOXING) CO., LTD., priority 2022, published 2026).
